Assay results: US20070179161A1, “Pyrazolopyrimidine compounds and their use in medicine” (VERNALIS (CAMBRIDGE) LIMITED., priority 2003, published 2007)

Columns and labels:
Type in all cases: biochemical
PDK1 enzyme = target: T1, PDK1 enzyme (Homo sapiens, UniProt O15530); test: PDK1 kinase inhibition assay (33P phosphorylation of synthetic peptide, filter plate); settings: 0.01 mM ATP, 60 min at 30° C.; read-out: PDK1 IC50
T1 sequence (O15530 1-556): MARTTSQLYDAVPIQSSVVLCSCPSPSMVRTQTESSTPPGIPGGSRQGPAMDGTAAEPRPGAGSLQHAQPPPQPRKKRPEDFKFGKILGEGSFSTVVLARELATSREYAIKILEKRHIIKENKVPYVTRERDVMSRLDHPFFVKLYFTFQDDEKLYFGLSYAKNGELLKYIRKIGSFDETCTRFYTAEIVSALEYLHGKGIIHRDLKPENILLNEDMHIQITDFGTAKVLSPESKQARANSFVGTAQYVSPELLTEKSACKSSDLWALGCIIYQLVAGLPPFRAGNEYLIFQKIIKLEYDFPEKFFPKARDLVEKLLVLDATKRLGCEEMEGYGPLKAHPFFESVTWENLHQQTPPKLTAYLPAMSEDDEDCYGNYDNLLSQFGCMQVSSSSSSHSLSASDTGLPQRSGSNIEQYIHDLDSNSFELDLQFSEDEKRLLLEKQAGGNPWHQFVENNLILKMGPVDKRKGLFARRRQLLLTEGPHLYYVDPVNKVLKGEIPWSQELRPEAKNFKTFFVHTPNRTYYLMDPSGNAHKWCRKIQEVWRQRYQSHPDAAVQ
Procedure: (§1) The assay mixture containing the inhibitor and PDK1 enzyme was mixed together in a microtiter plate in a final volume of 50 μl and incubated for 60 min at 30° C. The assay mixture contained 0.01 mM unlabeled ATP, 0.01 μCi/μl ^33P-γ-ATP, 0.075 mM peptide, 0.1 mg/ml BSA, 7.5 mM magnesium acetate, 0.05M Tris.HCl, pH 7.5, 0.5% 2-mercaptoethanol. The reaction was stopped by adding 50 μl of 50 mM phosphoric acid. 90 μl of the mixture were transferred to a pre-wetted 96-well Multiscreen MAPHNOB filtration plate (Millipore) and filtered on a vacuum manifold. […] The filtration plate was dried for 10 min at 65° C., scintillant added and phosphorylated peptide quantified in a scintillation counter (Trilux, PerkinElmer)

[1] = target: CDK-2 enzyme, complexed with cyclin A (Homo sapiens, UniProt P24941); test: CDK2 enzyme inhibition assay (33P phosphorylation of peptide […], filter plate); settings: CDK-2/cyclin A, 0.1 mM ATP, 40 min at 30° C.
Procedure: as §1, with “and CDK-2 enzyme, complexed with cyclin A (0.4 U/ml)” for “and PDK1 enzyme”, “for 40” for “for 60”, “contained 0.1” for “contained 0.01”, “^33P-γ-ATP, 0.03” for “^33P-γ-ATP, 0.075”, “acetate, 50 mM HEPES-NaOH,” for “acetate, 0.05M Tris.HCl,”, “pH 7.5.” for “pH 7.5, 0.5% 2-mercaptoethanol.”
HEPES is N-[2-Hydroxyethyl]piperazine-N′-[2-ethanesulfonic acid] BSA is bovine serum albumin.

GST-Chk1 enzyme = target: T2, GST-Chk1 enzyme (Homo sapiens, UniProt O14757); test: Chk1 kinase inhibition assay (33P phosphorylation of Chktide, filter plate); settings: 0.01 mM ATP, 11 nM GST-Chk1, 40 minutes at 30° C.; read-out: Chk1 IC50
T2 sequence (O14757 1-476): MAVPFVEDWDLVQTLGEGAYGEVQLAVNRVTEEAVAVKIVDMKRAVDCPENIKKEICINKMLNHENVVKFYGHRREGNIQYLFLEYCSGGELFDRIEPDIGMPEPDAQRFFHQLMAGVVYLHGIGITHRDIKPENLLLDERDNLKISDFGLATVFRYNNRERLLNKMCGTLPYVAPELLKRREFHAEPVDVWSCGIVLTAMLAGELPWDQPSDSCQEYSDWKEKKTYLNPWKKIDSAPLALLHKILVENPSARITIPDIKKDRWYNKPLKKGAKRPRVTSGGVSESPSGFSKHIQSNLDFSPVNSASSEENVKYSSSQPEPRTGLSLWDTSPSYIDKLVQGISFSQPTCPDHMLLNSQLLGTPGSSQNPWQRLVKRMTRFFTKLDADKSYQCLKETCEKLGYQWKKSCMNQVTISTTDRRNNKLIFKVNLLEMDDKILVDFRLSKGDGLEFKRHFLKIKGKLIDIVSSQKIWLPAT
Procedure: The assay mixture containing the inhibitor and Chk1 enzyme was mixed together in a microtiter plate in a final volume of 50 μl and incubated for 40 minutes at 30° C.
The reaction was stopped by adding 50 μl of 50 mM phosphoric acid. 90 μl of the mixture was transferred to a pre-wetted 96-well Multiscreen MAPHNOB filtration plate (Millipore) and filtered on a vacuum manifold. […] The filtration plate was dried for 10 min at 65° C., scintillant added and phosphorylated peptide quantified in a scintillation counter (Trilux, PerkinElmer)

| IC50 (PDK1 enzyme) [µM] | IC50 [1] [µM] | IC50 (GST-Chk1 enzyme) [µM] | SMILES |
| --- | --- | --- | --- |
| > 200 | 3.96 | > 200 | Oc1ccc(-c2cc(Nc3cccc(Cl)c3)n3nccc3n2)cc1 [Example 5] |
| > 200 | 5.65 | > 200 | Oc1cccc(-c2cc(Nc3ccccc3)n3nccc3n2)c1 [Example 6] |
| > 200 | 7.19 | > 200 | Cc1cccc(-c2cc(NCc3ccncc3)n3nccc3n2)c1 [Example 7] |
| > 200 | 7.55 | > 200 | COc1ccc(CNc2cc(-c3ccsc3)nc3ccnn23)cc1 [Example 8] |
| > 200 | 0.99 | > 200 | O=S(=O)(c1ccc(Nc2cc(Cl)nc3ccnn23)cc1)N1CCOCC1 [Example 9] |
| > 200 | 1.63 | > 200 | O=S(=O)(Nc1ccccn1)c1ccc(Nc2cc(Cl)nc3ccnn23)cc1 [Example 10] |
| > 200 | 1.31 | > 200 | O=S(=O)(Nc1nccs1)c1ccc(Nc2cc(Cl)nc3ccnn23)cc1 [Example 11] |
| > 200 | 0.72 | > 200 | NS(=O)(=O)c1ccc(Nc2cc(Cl)nc3ccnn23)cc1 [Example 12] |
| > 200 | 1.76 | > 200 | Cc1cccc(-c2cc(Nc3ccc(S(=O)(=O)N4CCOCC4)cc3)n3nccc3n2)c1 [Example 13] |
| 24.6 | 0.59 | > 200 | O=S(=O)(Nc1nccs1)c1ccc(Nc2cc(OC3CCCCC3)nc3ccnn23)cc1 [Example 14] |
| > 200 | 3.35 | > 200 | O=S(=O)(c1ccc(Nc2ccnc3ccnn23)cc1)N1CCOCC1 [Example 16] |
| 31.6 | 3.17 | > 200 | Cc1cccc(-c2cc(Nc3ccc(S(=O)(=O)Nc4nccs4)cc3)n3nccc3n2)c1 [Example 17] |
| > 200 | 0.96 | 52.4 | Cc1cccc(-c2cc(Nc3ccc(S(=O)(=O)Nc4ccccn4)cc3)n3nccc3n2)c1 [Example 18] |
| > 200 | 1.76 | > 200 | NS(=O)(=O)c1ccc(Nc2ccnc3ccnn23)cc1 [Example 20] |
| > 200 | 1.32 | > 200 | CS(=O)(=O)c1ccc(Nc2cc(OC3CCCCC3)nc3ccnn23)cc1 [Example 21] |
| 70.3 | 0.3 | > 200 | NS(=O)(=O)c1ccc(Nc2cc(OC3CCCCC3)nc3ccnn23)cc1 [Example 22] |
| > 200 | > 200 | > 200 | CS(=O)(=O)c1ccc(Nc2cc(Cl)nc3c(Cc4ccccc4)cnn23)cc1 [Example 23] |
| 0.325 | 0.008 | 1.27 | CN(C)S(=O)(=O)c1ccc(Nc2cc(N[C@H]3CC[C@H](N)CC3)nc3c(Br)cnn23)cc1 [Example 31, 3-bromo-5-(trans-4-aminocyclohexylamino)-7-(4-(N,N-dimethylsulphonamido)phenylamino)pyrazolo[1,5-a]pyrimidine] |
| > 200 | 0.062 | > 200 | CC(C)c1cnn2c(Nc3ccc(S(N)(=O)=O)cc3)cc(Cl)nc12 [Example 32] |
| > 200 | 0.271 | > 200 | CC(C)c1cnn2c(Nc3ccc(S(=O)(=O)N4CCC(O)CC4)cc3)cc(Cl)nc12 [Example 33] |

| IC50 (PDK1 enzyme) [µM] | IC50 [1] [µM] | IC50 (GST-Chk1 enzyme) [µM] | SMILES |
| --- | --- | --- | --- |
| > 200 | 0.127 | > 200 | CC(C)c1cnn2c(Nc3ccc(S(=O)(=O)N(C)CCO)cc3)cc(Cl)nc12 [Example 34] |
| > 200 | 0.191 | > 200 | CC(C)c1cnn2c(Nc3ccc(S(=O)(=O)NCC4CCCO4)cc3)cc(Cl)nc12 (stereo not drawn) [Example 35] |
| > 200 | 0.715 | > 200 | COCCNS(=O)(=O)c1ccc(Nc2cc(Cl)nc3c(C(C)C)cnn23)cc1 [Example 36] |
| > 200 | 1.51 | > 200 | CC(C)c1cnn2c(Nc3ccc(S(=O)(=O)NCCO)cc3)cc(Cl)nc12 [Example 37] |
| > 200 | 0.313 | > 200 | CC(C)c1cnn2c(Nc3ccc(S(C)(=O)=O)cc3)ccnc12 [Example 38] |
| > 200 | 0.403 | 80.8 | CC(C)c1cnn2c(Nc3ccc(S(=O)(=O)N(C)CCO)cc3)cc(OCCN(C)C)nc12 [Example 39] |
| > 200 | 1.16 | > 200 | CC(C)COc1cc(Nc2ccc(S(=O)(=O)N(C)C)cc2)n2ncc(C(C)C)c2n1 [Example 40] |
| > 200 | 1.2 | > 200 | CC(C)COc1cc(Nc2ccc(S(C)(=O)=O)cc2)n2ncc(C(C)C)c2n1 [Example 41] |
| > 200 | 0.17 | > 200 | CC(C)COc1cc(Nc2ccc(S(=O)(=O)N(C)CCO)cc2)n2ncc(C(C)C)c2n1 [Example 42] |
| > 200 | 0.107 | > 200 | CCc1cnn2c(Nc3ccc(S(C)(=O)=O)cc3)cc(Cl)nc12 [Example 43] |
| 79.1 | 0.179 | > 200 | CCc1cnn2c(Nc3ccc(S(C)(=O)=O)cc3)cc(OCC(C)C)nc12 [Example 44] |
| > 200 | 1.13 | > 200 | CCc1cnn2c(Nc3ccc(S(C)(=O)=O)cc3)cc(N(C)C)nc12 [Example 45] |
| 109 | 0.076 | > 200 | CNS(=O)(=O)c1ccc(Nc2cc(Cl)nc3c(C(C)C)cnn23)cc1 [Example 46] |
| > 200 | 0.727 | > 200 | CCc1cnn2c(Nc3ccc(S(C)(=O)=O)cc3)ccnc12 [Example 47] |
| > 200 | 1.46 | > 200 | CC(C)c1cnn2c(Nc3ccc(S(=O)(=O)N(C)CCO)cc3)cc(N3CCC(O)CC3)nc12 [Example 48] |
| > 200 | 0.387 | > 200 | CC(C)c1cnn2c(Nc3ccc(S(=O)(=O)N(C)C)cc3)cc(N3CCCC(CO)C3)nc12 (stereo not drawn) [Example 49] |
| > 200 | 1.01 | > 200 | CC(C)c1cnn2c(Nc3ccc(S(=O)(=O)N(C)C)cc3)cc(N3CCCCC3)nc12 [Example 50] |
| > 200 | 0.259 | > 200 | CCN(CC)c1cc(Nc2ccc(S(=O)(=O)N(C)CCO)cc2)n2ncc(C(C)C)c2n1 [Example 51] |
| > 200 | 0.239 | > 200 | CCc1cnn2c(Nc3ccc(S(=O)(=O)N(C)C)cc3)cc(Cl)nc12 [Example 52] |
| > 200 | 8.41 | > 200 | CC(C)c1cnn2c(Nc3ccc(S(C)(=O)=O)cc3)cc(OCCN(C)C)nc12 [Example 53] |
